Here are results for one compound from ChEMBL document CHEMBL5365420, “Kinetics, Thermodynamics, and Structural Effects of Quinoline-2-Carboxylates, Zinc-Binding Inhibitors of New Delhi Metallo-β-lactamase-1 Re-sensitizing Multidrug-Resistant Bacteria for Carbapenems” (J Med Chem, 2023).

What all share (assay type): functional
The test system of experiment [1] is Escherichia coli. The experiment can be described thus: Antibacterial activity against clinical isolate Escherichia coli K12 J53-ST10 684/18 expressing blaNDM-1 co-expressing blaCMY-2 and blaOXA-10 assessed as meropenem MIC at 23.5 uM measured after 20 hrs by broth microdilution assay (reference value: 5.03 mg/L).
In experiment [2] the test system is Klebsiella pneumoniae. The experiment is described as follows: Antibacterial activity against clinical isolate Klebsiella pneumoniae ST1493/10 expressing blaNDM-1 co-expressing blaCMY-2like/blaTEM-1/blaCTX-M-15/blaSHV-28/blaOXA-1 and blaOXA-9 assessed as meropenem MIC at 47 uM measured after 20 hrs by broth microdilution assay (reference value: 10.06 mg/L).
For experiment [3], the system named is Klebsiella pneumoniae. The experiment is described as follows: Antibacterial activity against clinical isolate Klebsiella pneumoniae ST23213/19 expressing blaNDM-1 co-expressing blaOXA-48/blaSHV-11/blaCTX-M-15 and blaOXA-1 assessed as meropenem MIC at 47 uM measured after 20 hrs by broth microdilution assay (reference value: 10.06 mg/L).
For experiment [4], the system named is Escherichia coli. The experiment is described as follows: Antibacterial activity against clinical isolate Escherichia coli K12 J53-ST10 699/15 expressing blaNDM-1 assessed as meropenem MIC at 47 uM measured after 20 hrs by broth microdilution assay (reference value: 10.06 mg/L).
Experiment [5] deals with Escherichia coli. The experiment can be described thus: Antibacterial activity against clinical isolate Escherichia coli K12 J53-ST10 684/18 expressing blaNDM-1 co-expressing blaCMY-2 and blaOXA-10 assessed as meropenem MIC at 47 uM measured after 20 hrs by broth microdilution assay (reference value: 10.06 mg/L).
The test system of experiment [6] is Escherichia coli. The experiment is described as follows: Antibacterial activity against clinical isolate Escherichia coli ST1012/10 expressing blaNDM-1 co-expressing blaTEM-1/blaCTX-M-15/blaOXA-1 and blaOXA-2 assessed as meropenem MIC at 47 uM measured after 20 hrs by broth microdilution assay (reference value: 10.06 mg/L).
Experiment [7] deals with Escherichia coli. The experiment is described as follows: Antibacterial activity against clinical isolate Escherichia coli K12 J53-ST10 618/15 expressing blaNDM-1 assessed as meropenem MIC at 47 uM measured after 20 hrs by broth microdilution assay (reference value: 10.06 mg/L).
The test system of experiment [8] is Klebsiella pneumoniae. The experiment can be described thus: Antibacterial activity against clinical isolate Klebsiella pneumoniae 50/11 expressing blaNDM-1 co-expressing blaTEM-1/blaSHV-28/blaTEM-1/blaCTX-M-15 and blaOXA-1 assessed as meropenem MIC at 47 uM measured after 20 hrs by broth microdilution assay (reference value: 10.06 mg/L).
The subject of experiment [9] is Klebsiella pneumoniae. The experiment is described as follows: Antibacterial activity against clinical isolate Klebsiella pneumoniae ST1493/10 expressing blaNDM-1 co-expressing blaCMY-2like/blaTEM-1/blaCTX-M-15/blaSHV-28/blaOXA-1 and blaOXA-9 assessed as meropenem MIC at 23.5 uM measured after 20 hrs by broth microdilution assay (reference value: 5.03 mg/L).
The test system of experiment [10] is Escherichia coli. The experiment can be described thus: Antibacterial activity against clinical isolate Escherichia coli K12 J53-ST10 696/17 expressing blaNDM-1 co-expressing blaCMY-4 assessed as meropenem MIC at 47 uM measured after 20 hrs by broth microdilution assay (reference value: 10.06 mg/L).
The subject of experiment [11] is Klebsiella pneumoniae. The experiment is described as follows: Antibacterial activity against clinical isolate Klebsiella pneumoniae 50/11 expressing blaNDM-1 co-expressing blaTEM-1/blaSHV-28/blaTEM-1/blaCTX-M-15 and blaOXA-1 assessed as meropenem MIC at 23.5 uM measured after 20 hrs by broth microdilution assay (reference value: 5.03 mg/L).
Experiment [12] concerns Escherichia coli. The experiment is described as follows: Antibacterial activity against clinical isolate Escherichia coli K12 J53-ST10 696/17 expressing blaNDM-1 co-expressing blaCMY-4 assessed as meropenem MIC at 23.5 uM measured after 20 hrs by broth microdilution assay (reference value: 5.03 mg/L).
Experiment [13] concerns Acinetobacter baumannii. The experiment is described as follows: Antibacterial activity against clinical isolate Acinetobacter baumannii IC 19/09 expressing blaNDM-1 co-expressing blaOXA-64 assessed as meropenem MIC at 23.5 uM measured after 20 hrs by broth microdilution assay (reference value: 5.03 mg/L).
The subject of experiment [14] is Klebsiella pneumoniae. The experiment is described as follows: Antibacterial activity against clinical isolate Klebsiella pneumoniae 62/07 expressing blaVIM-19 co-expressing blaSHV-1/blaCTX-M-14 and blaCMY-4 assessed as meropenem MIC at 23.5 uM measured after 20 hrs by broth microdilution assay (reference value: 5.03 mg/L).
For experiment [15], the system named is Klebsiella pneumoniae. The experiment is described as follows: Antibacterial activity against clinical isolate Klebsiella pneumoniae 50/20 expressing blaNDM-5 co-expressing blaTEM-1 and blaSHV-1 assessed as meropenem MIC at 47 uM measured after 20 hrs by broth microdilution assay (reference value: 10.06 mg/L).
The test system of experiment [16] is Escherichia coli. The experiment is described as follows: Antibacterial activity against clinical isolate Escherichia coli 371/12 expressing blaNDM-7 co-expressing blaCTX-M-15 and blaOXA-1 assessed as meropenem MIC at 47 uM measured after 20 hrs by broth microdilution assay (reference value: 10.06 mg/L).
Experiment [17] has as its system Escherichia coli. The experiment can be described thus: Antibacterial activity against clinical isolate Escherichia coli ST1012/10 expressing blaNDM-1 co-expressing blaTEM-1/blaCTX-M-15/blaOXA-1 and blaOXA-2 assessed as meropenem MIC at 23.5 uM measured after 20 hrs by broth microdilution assay (reference value: 5.03 mg/L).
For experiment [18], the system named is Klebsiella pneumoniae. The experiment is described as follows: Antibacterial activity against clinical isolate Klebsiella pneumoniae 50/20 expressing blaNDM-5 co-expressing blaTEM-1 and blaSHV-1 assessed as meropenem MIC at 23.5 uM measured after 20 hrs by broth microdilution assay (reference value: 5.03 mg/L).
Experiment [19] has as its system Klebsiella pneumoniae. The experiment is described as follows: Antibacterial activity against clinical isolate Klebsiella pneumoniae ST23213/19 expressing blaNDM-1 co-expressing blaOXA-48/blaSHV-11/blaCTX-M-15 and blaOXA-1 assessed as meropenem MIC at 23.5 uM measured after 20 hrs by broth microdilution assay (reference value: 5.03 mg/L).
Experiment [20] has as its system Acinetobacter baumannii. The experiment is described as follows: Antibacterial activity against clinical isolate Acinetobacter baumannii IC 19/09 expressing blaNDM-1 co-expressing blaOXA-64 assessed as meropenem MIC at 47 uM measured after 20 hrs by broth microdilution assay (reference value: 10.06 mg/L).
For experiment [21], the system named is Escherichia coli. The experiment can be described thus: Antibacterial activity against clinical isolate Escherichia coli K12 J53-ST10 618/15 expressing blaNDM-1 assessed as meropenem MIC at 23.5 uM measured after 20 hrs by broth microdilution assay (reference value: 5.03 mg/L).
In experiment [22] the test system is Escherichia coli. The experiment can be described thus: Antibacterial activity against clinical isolate Escherichia coli 371/12 expressing blaNDM-7 co-expressing blaCTX-M-15 and blaOXA-1 assessed as meropenem MIC at 23.5 uM measured after 20 hrs by broth microdilution assay (reference value: 5.03 mg/L).
The subject of experiment [23] is Klebsiella pneumoniae. The experiment is described as follows: Antibacterial activity against clinical isolate Klebsiella pneumoniae 62/07 expressing blaVIM-19 co-expressing blaSHV-1/blaCTX-M-14 and blaCMY-4 assessed as meropenem MIC at 47 uM measured after 20 hrs by broth microdilution assay (reference value: 10.06 mg/L).
For experiment [24], the system named is Escherichia coli. The experiment can be described thus: Antibacterial activity against clinical isolate Escherichia coli K12 J53-ST10 699/15 expressing blaNDM-1 assessed as meropenem MIC at 23.5 uM measured after 20 hrs by broth microdilution assay (reference value: 5.03 mg/L).

For the compound `Oc1c(Cl)cc(Cl)c2cccnc12` [CHLOROXINE], the MIC is not above 0.125 µg/mL in the experiment on Escherichia coli [1]; 16 µg/mL with Klebsiella pneumoniae [2]; 16 µg/mL in the experiment on Klebsiella pneumoniae [3]; not above 0.125 µg/mL in the experiment on Escherichia coli [4]; not above 0.125 µg/mL with Escherichia coli [5]; not above 0.125 µg/mL in the experiment with Escherichia coli [6]. Besides, the MIC was not above 0.125 µg/mL in the experiment with Escherichia coli [7]; not above 0.125 µg/mL in the experiment on Klebsiella pneumoniae [8]; 128 µg/mL with Klebsiella pneumoniae [9]; not above 0.125 µg/mL with Escherichia coli [10]; 4 µg/mL in the experiment with Klebsiella pneumoniae [11]; not above 0.125 µg/mL with Escherichia coli [12]. Further, the MIC was not above 0.125 µg/mL in the experiment with Acinetobacter baumannii [13]; 8 µg/mL in the experiment with Klebsiella pneumoniae [14]; not above 0.125 µg/mL in the experiment with Klebsiella pneumoniae [15]; not above 0.125 µg/mL in the experiment on Escherichia coli [16]; not above 0.125 µg/mL with Escherichia coli [17]; 4 µg/mL with Klebsiella pneumoniae [18]. The minimal inhibitory concentration (MIC) with Klebsiella pneumoniae [19] was 128 µg/mL; in the experiment with Acinetobacter baumannii [20], not above 0.125 µg/mL; with Escherichia coli [21], not above 0.125 µg/mL; with Escherichia coli [22] it was not above 0.125 µg/mL; in the experiment on Klebsiella pneumoniae [23] it was not above 0.125 µg/mL; with Escherichia coli [24] it was not above 0.125 µg/mL.
